Experimental data as given in patent US5166154A, “Imidazo[1,2-a]piperazines” (Boehringer Ingelheim Pharmaceuticals, Inc., priority 1991, dated 1992).
Like-named read-outs stand apart in the source and are kept apart here.

Target: T1, Human sputum elastase (HSE) (Homo sapiens, UniProt P08246)
T1 construct: purchased Elastin Products Co., Pacific, Mo; host or cells: human sputum
T1 sequence (P08246 30-247 limits assumed): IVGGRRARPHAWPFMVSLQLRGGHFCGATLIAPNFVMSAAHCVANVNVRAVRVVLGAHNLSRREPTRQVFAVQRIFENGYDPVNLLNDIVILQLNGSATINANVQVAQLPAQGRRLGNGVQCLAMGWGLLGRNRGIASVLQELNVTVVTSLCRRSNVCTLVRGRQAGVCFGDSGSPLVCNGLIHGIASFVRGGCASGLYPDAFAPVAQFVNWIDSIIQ
Assay: In vitro elastase inhibition, hydrolysis of MeO-Suc-Ala-Ala-Pro-Val-pNA (release of pNA, 405 nm)
Assay type: biochemical
Settings: 5 ug/mL, 0.5 mM substrate, pH 7.5, 15 min pre-incubation
Excerpt: The method of K. Nakajima et al., Journal of Biological Chemistry, 254: 4027-4032 (1979) was adapted to a microtiter format. The in vitro assay is based upon the hydrolysis of the commercially available (Sigma Chemical Company, St. Louis, Mo.) substrate methoxy O-succinyl-L-alanyl-L-alanyl-L-prolyl-L-valine para-nitroanilide (MeO-Suc-Ala-Ala-Pro-Val-pNA) and the release of para-nitroanilide (pNA), which absorbs at 405 nm.
a. Human sputum elastase (HSE) (Elastin Products Co., Pacific, Mo.) dissolved in 1 mg/mL in 0.05M sodium chloride and frozen (50 μL aliquots) at -20° C. until used.
b. Stock solution of MeO-succinyl-L-Alanyl-L-Alanyl-Pro-Val-pNA dissolved at 15 mM in dimethylsulfoxide (DMSO) and frozen (4 mL aliquots) at -20° C. until used.
c. Assay buffer: 0.1M Tris buffer, pH 7.5 containing 0.5M sodium chloride.
Screening is performed in microtiter plates, using 0.5 mM substrate and monitored on a Microtiter Reader. Enzyme activity (+/- test compound) is determined as the rate of pNA release (linear regression analysis of slope). Inhibitory activity of the test compound is calculated relative to the uninhibited enzyme control, as follows: [formula]
A frozen aliquot of HSE is thawed and diluted with assay buffer to a stock concentration of 0.02 mg/mL (30×assay concentration). A frozen aliquot of the substrate stock solution is thawed and diluted to 0.5 mM with the assay buffer (final DMSO concentration is […]). 10 μl of the test compound stock solution (or assay buffer) and 10 μl of the HSE stock solutions are pipetted into each microtiter well, in duplicate. The plate is mixed well, and pre-incubated at room temperature for 15 minutes. A 300 μl substrate solution is then added to each well and the OD405 is followed for approximately 30 minutes.
Further, it is known to those skilled in the art that the biological activities of pharmaceutical agents may be diminished in vitro when human serum albumin (HSA) is added. This is due to the probable binding of compounds to protein. In the case of the present invention, however, the compounds of the present invention are just as active in vitro without or with 0.5% HSA and thus would be expected not to bind to plasma in an in vivo situation or in a diagnostic setting.

[1] = 0% HSA (human serum albumin), read-out: % INHIBITION (5 ug/mL), 0% HSA
[2] = 0.5% HSA (human serum albumin), read-out: % INHIBITION (5 ug/mL), 0.5% HSA

inhibition at 5 µg/mL [1]	inhibition at 5 µg/mL [2]	SMILES
39.2%	28%	CC(C)C1N=C2CN(C3CCCCCCC3)C(=O)[C@H](C(C)C)N2C1(O)C(F)(F)F (stereo partly drawn)
47.5%	58.6%	COc1ccc(CCN2CC3=NC(C(C)C)C(O)(C(F)(F)F)N3[C@@H](C(C)C)C2=O)cc1OC (stereo partly drawn)
86%	84.5%	CC(C)C1N=C2CN(C3Cc4ccccc4C3)C(=O)[C@H](C(C)C)N2C1(O)C(F)(F)F (stereo partly drawn)
